“And” between values parts separate entries of the source, which are not always exact repeats. Equal values may be shown once. Read-outs that look alike come from different tables or passages of the source.
Legend:
Type in all cases: in vivo
[1] = test system: Myzus persicae (aphids); test: insecticidal mortality test, contact, Chinese Cabbage leaf; conditions: 72 h, read-out: grading of mortality, MP
Description: (§1) The activity of the Product was determined using a variety of insect pests. The Product was used in the form of liquid preparations containing 500, 250 or 100 parts per million (ppm) by weight of the Product. The preparations were made by dissolving the Product in acetone and diluting the solutions with water containing 0.01% by weight of a wetting agent sold under the trade name "LlSSAPOL" NX until the liquid preparations contained the required concentration of the Product. "Lissapol" is a Registered Trade Mark.
(§2) The test procedure adopted with regard to each pest was basically the same and comprised supporting a number of the pests on a medium which was usually a host plant or a foodstuff on which the pests feed, and treating either or both the pests and the medium with the preparations. The mortality of the pests was then assessed at periods usually varying from one to three days after the treatment.
(§3) The results of the tests are given in Table III for each of the Products, at the rate in parts per million given in the second column as a grading of mortality designated as A, B or C wherein A indicates 80-100% mortality, B indicates 50-79% mortality and C indicates less than 50% mortality.
(§4) In Table 111 the pest organism used is designated by a letter code and the pests species, the support medium or food, and the type and duration of test is given in Table II.

[2] = test system: Tetranychus urticae (spider mites - adult); test: insecticidal mortality test, contact, French bean leaf; conditions: Tetranychus urticae, 72 h, read-out: grading of mortality, Tua, 100 ppm, 3 days
Description: as §1, §2, §3, §4

[3] = test system: Diabrotica balteata (rootworm larvae); test: insecticidal mortality test, residual, filter paper/maize seed; conditions: read-out: grading of mortality, DB
Description: as §1, §2, §3, §4

[4] = test system: Musca domestica (adult females); test: Musca domestica knockdown test; conditions: 1 cm3 of 30 ppm solution in acetone, Kearns and March chamber, 20 adult females, observed over 10 minutes; average of 2 replicates (* single replicate, ** average of 7 tests)
Description: 1 cm³ Of a 30 ppm solution of the test chemical in acetone was sprayed into a Kearns and March chamber containing 20 Musca domestica (adult females). Knockdown was observed over a period of 10 minutes and KT₅₀ and KT₉₀ values (the time taken for 50% and 90% of the insects to be knocked down) were calculated from the observations. The results given in Table V represent average KT values of 2 replicates except where otherwise stated.

[5] = test system: Nephotettix cincticeps (green leaf hopper - nymphs); test: insecticidal mortality test, contact, rice plant; conditions: 100 ppm, contact, rice plant, read-out: grading of mortality, NC
Description: as §1, §2, §3, §4

[6] = test system: Blattella germanica (cockroach nymphs); test: insecticidal mortality test, residual, plastic pot; conditions: 72 h, read-out: grading of mortality, BG
Description: as §1, §2, §3, §4

[7] = test system: Musca domestica (houseflies - adults); test: insecticidal mortality test, contact, cotton wool/sugar; conditions: read-out: grading of mortality, MD
Description: as §1, §2, §3, §4

[8] = test system: Blattella germanica (adult males); test: Blattella germanica knockdown test; conditions: for mortality at 250 ppm / pest or weed control at 250 ppm: Blattella germanica; for mortality at 250 ppm: 48 h, read-out: % MORTALITY 48 hrs; for pest or weed control at 250 ppm: topical, Tetramethrin: mean of 27 observations; for KT₅₀: time taken to knockdown 50% of test insects; for KT₅₀ / KT₉₀: Tetramethrin: mean of 3 assessments; for KT₉₀: time taken to knockdown 90% of test insects
Description: The test compound was dissolved in acetone (2 cm³) and the solution diluted to a concentration of 250 ppm with kerosene. 1 cm³ Of this preparation was sprayed onto 10 Blattella germanica (adult males) held in a netted plastic pot in a Burkhard potter Tower. Assessment of knockdown was performed at intervals of 5 minutes up to a total of 20 minutes. On removal from the Burkhard Potter Tower, the insects were held at 25°C and 65% relative humidity for 48 hours, and an assessment of mortality performed. Each test was repeated.
In some tests, additional knockdown assessment was performed at intervals of 1, 2, 3 and 4 minutes, and KT₅₀ and KT₉₀ values determined (the time taken, in minutes, to knockdown 50% and 90% respectively of test insects).

[9] = test system: Spodoptera exigua (lesser army worm - larvae); test: insecticidal mortality test, residual, cotton leaf; conditions: read-out: grading of mortality, SP
Description: as §1, §2, §3, §4

[10] = test system: Heliothis virescens (tobacco budworm - larvae); test: insecticidal mortality test, residual, cotton leaf; conditions: 100 ppm, residual, cotton leaf, read-out: grading of mortality, HV
Description: as §1, §2, §3, §4

[11] = 250 ppm spray, insects held at 25°C and 65% relative humidity for 48 hours, tests 1 and 2 are repeats
[12] = 5 min, 250 ppm in kerosene, 1 cm3 sprayed onto 10 adult males, 5 min, tests 1 and 2 are repeats, read-out: % KNOCKDOWN OBSERVED 5 min
[13] = 48 h, test duration of 2 days (footnote +)
[14] = 10 min, 250 ppm in kerosene, 1 cm3 sprayed onto 10 adult males, 10 min, tests 1 and 2 are repeats, read-out: % KNOCKDOWN OBSERVED 10 min

Compound `CC1(C)C(C=C(Cl)C(F)(F)F)C1C(=O)OCc1c(F)c(F)c(CCl)c(F)c1F` (racemic) [Product III, 4-(chloromethyl)-2,3,5,6-tetrafluorobenzyl (1RS,cis)-3-(Z-2-chloro-3,3,3-trifluoroprop-1-en-1-yl)-2,2-dimethylcyclopropanecarboxylate] has a mortality at 100 ppm [1] of 80 to 100%, a mortality at 100 ppm [2] of 80 to 100% and a mortality at 100 ppm ([3]; 72 h) of 80 to 100%. For the same compound, the KT₅₀ [4] was 10 min, the KT₉₀ [4] was 10 min and the mortality at 100 ppm ([5]; 72 h, 3 days) was 80 to 100%. For the same compound, the mortality at 100 ppm [6] was 80 to 100%, the mortality at 100 ppm ([7]; 24 h) was under 50% and the mortality at 250 ppm [8, 11] was 100%. The pest or weed control at 250 ppm [8, 12] was 100%, the mortality at 100 ppm ([9]; 72 h) was 80 to 100% and the mortality at 100 ppm ([10]; 72 h, 3 days) was 80 to 100%.

With `CC(C)=NOCc1c(F)c(F)c(COC(=O)C2C(C=C(Cl)C(F)(F)F)C2(C)C)c(F)c1F` (racemic) [Product XXII, 4-[(prop-2-ylideneamino)oxymethyl]-2,3,5,6-tetrafluorobenzyl (1RS, cis)-3-(Z-2-chloro-3,3,3-trifluoroprop-1-en-1-yl-2,2-dimethylcyclopropanecarboxylate] the mortality at 100 ppm [1] was 80 to 100%, the mortality at 100 ppm [2] was 80 to 100% and the mortality at 100 ppm ([3]; 48 h) was 80 to 100%. It also gave a mortality at 100 ppm [5, 13] of 80 to 100%, a mortality at 100 ppm [6] of under 50% and a mortality at 100 ppm ([7]; 72 h) of 80 to 100%. For the same compound, the KT₅₀ ([8]; 250 ppm spray) was 3.6 min and 2.5 min, the KT₉₀ ([8]; 250 ppm spray) was 8.3 min and 4.5 min and the mortality at 250 ppm [8, 11] was 100%. The pest or weed control at 250 ppm [8, 14] was 100%, the mortality at 100 ppm ([9]; 48 h) was 80 to 100% and the mortality at 100 ppm [10, 13] was 80 to 100%.

`CC(C)=NOCc1c(F)c(F)c(COC(=O)[C@@H]2[C@@H](/C=C(\Cl)C(F)(F)F)C2(C)C)c(F)c1F` (racemic) [Product XXIII, 4-[(prop-2-ylidenamino)oxymethyl]-2,3,5,6-tetrafluorobenzyl (1RS, trans)-3-(Z-2-chloro-3,3,3-trifluoroprop-1-en-1-yl)-2,2-dimethylcyclopropanecarboxylate] was tested, and the mortality at 100 ppm [1] was 80 to 100%, the mortality at 100 ppm [2] was 80 to 100% and the mortality at 100 ppm ([3]; 48 h) was 80 to 100%. The mortality at 100 ppm [5, 13] was 80 to 100%, the mortality at 100 ppm [6] was under 50% and the mortality at 100 ppm ([7]; 72 h) was under 50%. The “% KNOCKDOWN OBSERVED 15 min” value ([8]; 250 ppm in kerosene, 1 cm3 sprayed onto 10 adult males, 15 min, tests 1 and 2 are repeats) was 10%, the “% KNOCKDOWN OBSERVED 20 min” value ([8]; 250 ppm in kerosene, 1 cm3 sprayed onto 10 adult males, 20 min, tests 1 and 2 are repeats) was 10% and the KT₉₀ ([8]; 250 ppm spray) was 9.3 min. The mortality at 250 ppm [8, 11] was 100%, the mortality at 100 ppm ([9]; 48 h) was 80 to 100% and the mortality at 100 ppm [10, 13] was under 50%.

`C#CCN(C)Cc1c(F)c(F)c(COC(=O)[C@@H]2[C@H](/C=C(\Cl)C(F)(F)F)C2(C)C)c(F)c1F` (racemic) [Product XXIV, 4-[(N-(prop-2-yn-1-yl)-N-methyl)aminomethyl]-2,3,5-6-tetrafluorobenzyl (1RS, cis)-3-(Z-2-chloro-3,3,3-trifluoroprop-1-en-1-yl)-2,2-dimethylcyclopropanecarboxylate] was tested, and the mortality at 100 ppm [1] was 80 to 100%, the mortality at 100 ppm [2] was 50 to 79% and the mortality at 100 ppm ([3]; 48 h) was 80 to 100%. For the same compound, the mortality at 100 ppm [5, 13] was 80 to 100%, the mortality at 100 ppm [6] was 50 to 79% and the mortality at 100 ppm ([7]; 72 h) was 80 to 100%. The “% MORTALITY 48 hrs” value ([8]; 250 ppm spray, insects held at 25°C and 65% relative humidity for 48 hours, tests 1 and 2 are repeats, 2880 min) was 100% and 70%, the KT₅₀ ([8]; 250 ppm spray) was 4.2 min and 5.0 min and the KT₉₀ ([8]; 250 ppm spray) was 8.8 min and 9.0 min. The pest or weed control at 250 ppm [8, 12] was 60%, the pest or weed control at 250 ppm [8, 14] was 100% and the mortality at 100 ppm ([9]; 48 h) was 80 to 100%. The mortality at 100 ppm [10, 13] was 80 to 100%.
